Laboratory results: patent publication US20250381179A1, “CHROMAN-BASED COMPOUNDS FOR TREATING CANCER” (priority 2024, published 2025)

Columns and labels:
CYP3A [1] = assay: CYP3A direct inhibition; format: in vitro ADME; settings: highest concentration evaluated (10 μM)
CYP2C19 = CYP2C19 (Homo sapiens, UniProt P33261)
MCF7 xenograft tumors = MCF7 xenograft tumors in mice, once daily oral administration; format: in vivo; settings: once daily oral 30 mg/kg/day (lowest dose level evaluated)
[2] = test system: tamoxifen-resistant MCF7 xenograft; assay: Tamoxifen-resistant MCF7 xenograft model; format: in vivo, mice; settings: in combination with the CDK4/6 inhibitor palbociclib
[3] = biological target: human cytochrome P450 CYP3A5 (Homo sapiens, UniProt P20815); assay: In vitro metabolism by CYP3A5; format: in vitro ADME
CYP2B6 [4] = assay: CYP2B6 induction in vitro (activity, mRNA); format: in vitro ADME
CYP2C9 = CYP2C9 (Homo sapiens, UniProt P11712)
CYP3A4 = CYP3A4 induction in vitro (activity, mRNA); format: in vitro ADME
in vivo = settings: male, rat, po
CYP3A [5] = assay: in vitro; settings: human
CYP2B6 [6] = biological target: T1, CYP2B6 (Homo sapiens, UniProt P20813)
T1 sequence (P20813 1-491): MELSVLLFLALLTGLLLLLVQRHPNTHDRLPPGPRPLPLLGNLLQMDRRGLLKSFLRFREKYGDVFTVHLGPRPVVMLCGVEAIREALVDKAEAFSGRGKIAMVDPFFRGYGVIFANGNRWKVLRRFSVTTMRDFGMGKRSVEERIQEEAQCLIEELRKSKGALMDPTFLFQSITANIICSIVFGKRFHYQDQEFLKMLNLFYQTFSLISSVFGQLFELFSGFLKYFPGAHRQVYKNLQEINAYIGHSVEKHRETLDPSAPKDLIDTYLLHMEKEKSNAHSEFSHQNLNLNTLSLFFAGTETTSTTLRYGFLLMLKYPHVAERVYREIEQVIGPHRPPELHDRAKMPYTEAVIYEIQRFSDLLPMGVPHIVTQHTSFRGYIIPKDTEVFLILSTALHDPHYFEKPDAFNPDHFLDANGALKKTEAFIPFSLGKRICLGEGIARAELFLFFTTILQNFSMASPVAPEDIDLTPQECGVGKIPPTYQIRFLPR

[7] = biological target: T2, human cytochrome P450 CYP2C8 (Homo sapiens, UniProt P10632); assay: In vitro metabolism by CYP2C8; format: in vitro ADME
T2 sequence (P10632 1-490): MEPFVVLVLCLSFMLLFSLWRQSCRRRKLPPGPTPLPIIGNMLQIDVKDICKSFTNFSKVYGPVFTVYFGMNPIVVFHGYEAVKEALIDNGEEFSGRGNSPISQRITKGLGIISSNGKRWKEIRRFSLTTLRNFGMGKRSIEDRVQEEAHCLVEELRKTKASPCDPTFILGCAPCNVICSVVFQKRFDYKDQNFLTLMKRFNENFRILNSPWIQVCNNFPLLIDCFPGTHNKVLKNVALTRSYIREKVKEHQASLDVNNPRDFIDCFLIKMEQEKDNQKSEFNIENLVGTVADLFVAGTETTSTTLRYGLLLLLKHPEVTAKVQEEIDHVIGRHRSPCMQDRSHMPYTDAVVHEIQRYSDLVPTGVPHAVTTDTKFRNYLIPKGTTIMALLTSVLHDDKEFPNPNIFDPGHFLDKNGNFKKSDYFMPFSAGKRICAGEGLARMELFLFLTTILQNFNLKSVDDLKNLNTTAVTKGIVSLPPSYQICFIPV

[8] = Exposure after repeat oral administration in GLP toxicology study, rats; format: in vivo
From the text: There were no marked sex-based differences in exposure, but in the 28-day toxicity study of compound (1-g) in rats, exposures were 1.4 to 1.9-fold higher in female rats compared to males.

Chain of CYP2C9 (P11712 whole entry): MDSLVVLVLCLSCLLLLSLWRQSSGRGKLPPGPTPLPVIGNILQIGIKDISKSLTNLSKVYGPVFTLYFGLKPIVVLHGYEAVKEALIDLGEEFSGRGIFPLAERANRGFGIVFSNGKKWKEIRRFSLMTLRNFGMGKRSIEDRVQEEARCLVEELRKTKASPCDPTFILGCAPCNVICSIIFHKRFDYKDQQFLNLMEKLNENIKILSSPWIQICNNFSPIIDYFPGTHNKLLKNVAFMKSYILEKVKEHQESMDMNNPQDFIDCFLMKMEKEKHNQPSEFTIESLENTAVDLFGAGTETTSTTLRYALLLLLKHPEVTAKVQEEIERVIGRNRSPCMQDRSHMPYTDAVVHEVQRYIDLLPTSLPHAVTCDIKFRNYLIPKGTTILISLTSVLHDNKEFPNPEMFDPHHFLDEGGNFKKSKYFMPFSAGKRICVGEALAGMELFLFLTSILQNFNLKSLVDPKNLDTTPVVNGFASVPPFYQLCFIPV
Chain of CYP2C19 (P33261 whole entry): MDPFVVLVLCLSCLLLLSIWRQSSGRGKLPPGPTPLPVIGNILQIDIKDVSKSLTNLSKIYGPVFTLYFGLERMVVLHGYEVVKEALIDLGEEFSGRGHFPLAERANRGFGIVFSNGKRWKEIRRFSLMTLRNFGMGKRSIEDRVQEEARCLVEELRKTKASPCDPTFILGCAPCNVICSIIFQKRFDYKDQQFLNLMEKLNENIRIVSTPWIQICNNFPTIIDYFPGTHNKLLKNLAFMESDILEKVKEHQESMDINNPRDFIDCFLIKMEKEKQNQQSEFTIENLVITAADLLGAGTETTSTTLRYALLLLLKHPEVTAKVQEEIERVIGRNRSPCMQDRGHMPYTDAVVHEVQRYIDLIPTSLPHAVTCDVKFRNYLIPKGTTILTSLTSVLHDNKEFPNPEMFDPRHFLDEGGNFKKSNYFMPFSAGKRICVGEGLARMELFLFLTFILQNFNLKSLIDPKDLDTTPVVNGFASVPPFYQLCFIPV
Chain of human cytochrome P450 CYP3A5 (P20815 whole entry): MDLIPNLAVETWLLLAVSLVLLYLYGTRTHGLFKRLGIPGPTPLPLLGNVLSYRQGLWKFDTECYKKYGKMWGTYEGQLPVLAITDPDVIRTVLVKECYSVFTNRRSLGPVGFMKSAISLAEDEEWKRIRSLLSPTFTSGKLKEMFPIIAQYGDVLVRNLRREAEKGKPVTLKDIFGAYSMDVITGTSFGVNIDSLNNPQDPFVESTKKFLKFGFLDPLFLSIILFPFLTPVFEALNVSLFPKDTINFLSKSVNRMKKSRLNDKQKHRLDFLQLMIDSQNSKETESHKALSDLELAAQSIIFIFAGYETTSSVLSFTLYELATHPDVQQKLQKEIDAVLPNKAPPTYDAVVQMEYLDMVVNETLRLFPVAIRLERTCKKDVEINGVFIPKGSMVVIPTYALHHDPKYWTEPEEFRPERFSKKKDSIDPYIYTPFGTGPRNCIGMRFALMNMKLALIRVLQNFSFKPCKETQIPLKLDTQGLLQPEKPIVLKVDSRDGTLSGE

## O=C1CC[C@H](N2Cc3cc(N4CCN(CC5CCN(c6ccc([C@@H]7c8ccc(O)cc8OC[C@@H]7c7ccccc7)cc6F)CC5)CC4)ccc3C2=O)C(=O)N1 [compound (1-g), (S)-3-(5-(4-((1-(2-fluoro-4-((3S,4R)-7-hydroxy-3-phenylchroman-4-yl)phenyl)piperidin-4-yl)methyl)piperazin-1-yl)-1-oxoisoindolin-2-yl)piperidine-2,6-dione]
CYP3A [1]
  CYP3A direct inhibition: did not directly inhibit
CYP2C19
  CYP2C19 time-dependent inhibition: without showing time-dependent inhibition
MCF7 xenograft tumors
  effect on MCF7 xenograft tumors: achieved tumor regression
[2]
  anti-tumor activity in combination: enhanced anti-tumor activity was observed
both, dog, in vivo, po, 28 day
  highest non-severely-toxic dose (HNSTD): 45 mg/kg/day
dog, in vivo
  off-target adverse toxicities: no off-target adverse toxicities observed
dogs, 28-day GLP
  key organ effects: considered on target pharmacological effects
[3]
  metabolism by CYP3A5: weakly metabolized
CYP2B6 [4]
  CYP2B6 induction (activity or mRNA expression): did not significantly induce activity or mRNA expression
CYP2C9
  CYP2C9 time-dependent inhibition: without showing time-dependent inhibition
CYP3A4
  CYP3A4 induction (activity or mRNA expression): did not significantly induce activity or mRNA expression
In vivo
  NOAEL at 28 day: 270 mg/kg/day
CYP3A [5]
  inhibition at 10 µM: 31.3%
CYP2B6 [6]
  CYP2B6 time-dependent inhibition: without showing time-dependent inhibition
[7]
  metabolism by CYP2C8: weakly metabolized
[8]
  accumulation with repeated dosing: No significant accumulation
[8]; repeat oral administration
  exposure (AUC0-24h) versus dose: increased in an approximately dose-dependent manner
